Measurements: the supplement of paper PMC10307832

Columns and labels:
Experiment in all cases: relative viability (nuclei count vs DMSO), 5 days (fraction); higher = more cells survive
[1] = compound: CN(c1ncccc1CNc1nc(Nc2ccc3c(c2)CC(=O)N3)ncc1C(F)(F)F)S(C)(=O)=O + CC1(C)CCC(c2ccc(Cl)cc2)=C(CN2CCN(c3ccc(C(=O)NS(=O)(=O)c4ccc(N[C@H](CCN5CCOCC5)CSc5ccccc5)c(S(=O)(=O)C(F)(F)F)c4)cc3)CC2)C1 [Navitoclax] (partner 0.5 µM)
Procedure, shortened: (§1)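 A single step with final 0.05% Triton X-100, 1% formaldehyde and 1 ug/ml Hoechst fixed the cells and stained nuclei 5 days after treatment. Lung cancer cell lines in 1536-well plates had been treated by pin tool the day after seeding with one drug alone or a fixed anchor-drug dose plus five library-drug doses (not always all listed) in √10 steps, and nuclei were counted on 4× images. Relative viability is the ratio of nuclei in treated wells to nuclei in vehicle wells, taken as the median of duplicate plates.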

[2] = compound: CN(c1ncccc1CNc1nc(Nc2ccc3c(c2)CC(=O)N3)ncc1C(F)(F)F)S(C)(=O)=O + C[C@@H](Oc1cc(-c2cnn(C3CCNCC3)c2)cnc1N)c1c(Cl)ccc(F)c1Cl [Crizotinib] (partner 1 µM)
Procedure, shortened: as §1

[3] = compound: CN(c1ncccc1CNc1nc(Nc2ccc3c(c2)CC(=O)N3)ncc1C(F)(F)F)S(C)(=O)=O + Cc1nc(Nc2ncc(C(=O)Nc3c(C)cccc3Cl)s2)cc(N2CCN(CCO)CC2)n1 [Dasatinib] (partner 0.075 µM)
Procedure, shortened: as §1

[4] = compound: CN(c1ncccc1CNc1nc(Nc2ccc3c(c2)CC(=O)N3)ncc1C(F)(F)F)S(C)(=O)=O + O=C(CCCCCCC(=O)Nc1ccccc1)NO [Vorinostat] (partner 1 µM)
Procedure, shortened: as §1

Row | Cell Line | relative viability ([1]; first compound 0.01 µM) | relative viability ([1]; first compound 0.03162 µM) | relative viability ([1]; first compound 0.1 µM) | relative viability ([1]; first compound 0.3162 µM) | relative viability ([1]; first compound 1 µM) | relative viability ([2]; first compound 0.01 µM) | relative viability ([2]; first compound 0.03162 µM) | relative viability ([2]; first compound 0.1 µM) | relative viability ([2]; first compound 0.3162 µM) | relative viability ([2]; first compound 1 µM) | relative viability ([3]; first compound 0.01 µM) | relative viability ([3]; first compound 0.03162 µM) | relative viability ([3]; first compound 0.1 µM) | relative viability ([3]; first compound 0.3162 µM) | relative viability ([3]; first compound 1 µM) | relative viability ([4]; first compound 0.01 µM) | relative viability ([4]; first compound 0.03162 µM) | relative viability ([4]; first compound 0.1 µM) | relative viability ([4]; first compound 0.3162 µM) | relative viability ([4]; first compound 1 µM)
1 | NCI-H1437 | 1.1 | 1.09 | 1.16 | 0.986 | 0.968 | 0.912 | 1.02 | 0.884 | 0.856 | 0.77 | 0.401 | 0.391 | 0.426 | 0.204 | 0.427 | 0.763 | 0.846 | 0.697 | 0.597 | 0.414
2 | NCI-H2170 | 0.675 | 0.62 | 0.687 |  | 0.554 | 1.23 | 1.22 | 1.31 |  | 1.21 | 0.455 | 0.526 | 0.461 | 0.504 | 0.404 | 0.817 | 0.882 | 0.836 | 0.832 | 0.859
3 | NCI-H441 | 0.476 | 0.687 | 0.479 | 0.706 | 0.374 | 0.679 | 0.825 | 0.604 | 0.692 | 0.654 | 0.631 | 0.497 | 0.378 | 0.35 | 0.295 | 0.933 | 0.978 | 0.824 | 0.792 | 0.644
4 | SK-LU-1 | 0.878 | 0.841 | 0.735 | 0.766 | 0.768 | 0.944 | 0.882 | 0.858 | 0.808 | 0.784 | 0.198 | 0.176 | 0.157 | 0.162 | 0.124 | 0.6 | 0.693 | 0.722 | 0.711 | 0.594
5 | BEN | 0.0691 | 0.0546 | 0.0649 | 0.0815 | 0.0763 | 0.825 | 0.949 | 0.813 | 0.848 | 0.848 | 0.319 | 0.312 | 0.272 | 0.289 | 0.267 | 0.546 | 0.625 | 0.578 | 0.544 | 0.554
6 | LC-2-ad | 0.556 | 0.479 | 0.433 | 0.364 | 0.322 | 0.491 | 0.465 | 0.514 | 0.435 | 0.469 | 0.414 | 0.484 | 0.492 | 0.399 | 0.335 | 0.739 | 0.756 | 0.674 | 0.635 | 0.584
7 | COR-L23 | 0.929 | 1.09 | 0.933 | 1.01 | 0.826 | 0.653 | 0.649 | 0.7 | 0.594 | 0.486 | 0.458 | 0.524 | 0.483 | 0.413 | 0.323 | 0.471 | 0.392 | 0.327 | 0.305 | 0.295
8 | NCI-H1650 | 1.26 | 1.39 | 1.39 |  | 0.76 | 1.01 | 0.945 | 1.17 |  | 0.94 | 0.303 | 0.367 | 0.339 | 0.303 | 0.327 | 0.682 | 0.513 | 0.581 | 0.586 | 0.69
